The target of one experiment is T1, human μ-opiate receptor (Homo sapiens, UniProt P35372).
T1 construct: purchased NEN, Zaventem, Belgium RB-HOM; host or cells: CHO-K1 cells (membrane preparation)
As to the kind of experiment: μ-opiate receptor binding assay with [3H] naloxone (WGA-SPA beads). The note with it: 1 μmol/l test substance, 1 nmol/l [3H] naloxone, CHO-K1 cell membranes expressing human μ-opiate receptor. As for the experimental part: The receptor affinity to the human μ-opiate receptor was determined in a homogeneous batch in microtitre plates. To this end, dilution series of the substituted indole derivative to be tested were incubated for 90 minutes at room temperature with a receptor membrane preparation (15-40 μg protein per 250 μl incubation batch) of CHO-K1 cells, which express the human μ-opiate receptor (RB—HOM receptor membrane preparation from NEN, Zaventem, Belgium), in the presence of 1 nmol/l of the radioactive ligand [^3H] naloxone (NET719, NEN, Zaventem, Belgium) and 1 mg of WGA-SPA beads (wheat germ agglutinin SPA beads from Amersham/Pharmacia, Freiburg, Germany) in a total volume of 250 μl. 50 mmol/l tris-HCl supplemented with 0.05 wt. % sodium azide and 0.06 wt. % bovine serum albumin were used as the incubation buffer. In order to determine the non-specific binding, 25 μmol/l of naloxone were also added. At the end of the ninety-minute incubation period the microtitre plates were centrifuged for 20 minutes at 1000 g and the radioactivity was measured in a β counter (Microbeta-Trilux, PerkinElmer Wallac, Freiburg, Germany). The percentage displacement of the radioactive ligand from its binding to the human μ-opiate receptor was determined at a test substance concentration of 1 μmol/l and stated as the percentage inhibition (% inhibition) of the specific binding. In some cases the percentage displacement due to differing concentrations of the compounds having the general formula I to be tested was used to calculate the IC50 inhibition concentrations which bring about a 50-percent displacement of the radioactive ligand. Ki values for the test substances were obtained by extrapolation using the Cheng-Prusoff equation.

For the next experiment, the target named is T2, ORL1 receptor (Homo sapiens, UniProt P41146).
T2 construct: expressed in transfected cells; host or cells: CHO (recombinant CHO-ORL1 cells), membranes
T2 sequence (P41146 whole entry): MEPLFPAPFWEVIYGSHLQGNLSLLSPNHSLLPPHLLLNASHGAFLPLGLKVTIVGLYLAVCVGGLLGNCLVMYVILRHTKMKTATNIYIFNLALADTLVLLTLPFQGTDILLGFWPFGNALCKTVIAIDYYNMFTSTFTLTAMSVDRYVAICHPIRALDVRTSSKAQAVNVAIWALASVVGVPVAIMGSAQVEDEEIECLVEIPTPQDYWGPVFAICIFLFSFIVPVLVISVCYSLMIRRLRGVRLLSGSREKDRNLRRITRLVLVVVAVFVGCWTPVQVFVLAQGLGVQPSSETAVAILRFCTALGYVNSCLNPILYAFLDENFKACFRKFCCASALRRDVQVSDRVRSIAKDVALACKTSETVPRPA
As to the kind of experiment: ORL1 receptor binding assay with 3H-nociceptin/orphanin FQ (WGA-SPA beads). The conditions noted are these: c=1 μM test substance; 0.5 nM 3H-nociceptin/orphanin FQ; membranes of recombinant CHO-ORL1 cells. As for the experimental part: Measurement of ORL1 Binding
The cyclohexane derivatives having the general formula I were investigated in a receptor binding assay with ^3H-nociceptin/orphanin FQ with membranes of recombinant CHO—ORL1 cells. This test system was conducted in accordance with the method described by Ardati et al. (Mol. Pharmacol., 51, 1997, p. 816-824). The concentration of ^3H-nociceptin/orphanin FQ in these tests was 0.5 nM. The binding assays were carried out with 20 μg amounts of membrane protein per 200 μl batch in 50 mM Hepes, pH 7.4, 10 mM MgCl2 and 1 mM EDTA. The binding to the ORL1 receptor was determined using 1 mg amounts of WGA-SPA beads (Amersham-Pharmacia, Freiburg, Germany), by incubation of the batch for one hour at room temperature and subsequent measurement in a Trilux scintillation counter (Wallac, Finland). The affinity is given in Table 1 as the nanomolar Ki value or in % inhibition at c=1 μM.

SMILES strings stand for the structures.

T1 sequence (P35372 whole entry): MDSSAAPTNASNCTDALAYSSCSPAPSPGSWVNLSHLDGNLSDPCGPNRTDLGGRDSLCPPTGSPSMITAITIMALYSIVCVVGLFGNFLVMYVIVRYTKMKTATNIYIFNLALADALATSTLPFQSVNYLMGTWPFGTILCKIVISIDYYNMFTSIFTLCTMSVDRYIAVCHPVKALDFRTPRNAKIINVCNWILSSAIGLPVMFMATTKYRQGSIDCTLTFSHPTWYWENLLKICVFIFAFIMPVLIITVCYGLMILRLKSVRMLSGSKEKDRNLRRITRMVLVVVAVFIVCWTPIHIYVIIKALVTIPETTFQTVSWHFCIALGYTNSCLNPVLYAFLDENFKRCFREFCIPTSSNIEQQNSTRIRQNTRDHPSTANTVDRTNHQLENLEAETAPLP

On to `CN(CCN1CCC(c2ccccc2)(N(C)C)CC1)C(=O)c1ccc2cc[nH]c2c1` [Example 1, N-(2-(4-(Dimethylamino)-4-phenylpiperidin-1-yl)ethyl)-N-methyl-1H-indol-6-amide], for which the “% Inhibition (μ) at 1 μM” value on human μ-opiate receptor (1 µM) amounted to 94%. On ORL1 receptor, the “% Inhibition (ORL1) at 1 μM” value was found to be 80%.
`CC(C)C(CC(=O)NCCN1CCC(c2cccs2)(N(C)C)CC1)c1c[nH]c2ccccc12` (stereo not drawn) [Example 2, N-(2-(4-(Dimethylamino)-4-(thiophen-2-yl)piperidin-1-yl)ethyl)-3-(1H-indol-3-yl)-4-methylpentanamide]: the inhibition at 1 µM came to 99% at human μ-opiate receptor and 96% at ORL1 receptor.
As to `CN(CCN1CCC(c2ccccc2)(N(C)C)CC1)C(=O)c1cc2cc(F)ccc2[nH]1` [Example 3, N-(2-(4-(Dimethylamino)-4-phenylpiperidin-1-yl)ethyl)-5-fluoro-N-methyl-1H-indol-2-amide], the “% Inhibition (μ) at 1 μM” value on human μ-opiate receptor (1 µM) amounted to 92%. For the same molecule, the “% Inhibition (ORL1) at 1 μM” value at ORL1 receptor came to 90%.
Take `CN(CCN1CCC(c2ccccc2)(N(C)C)CC1)C(=O)CCc1c[nH]c2ccccc12` [Example 4, N-(2-(4-(Dimethylamino)-4-phenylpiperidin-1-yl)ethyl)-3-(1H-indol-3-yl)-N-methylpropanamide]: the inhibition at 1 µM on human μ-opiate receptor was 93%; at ORL1 receptor, 86%.
With `CN(C)C1(c2cccs2)CCN(CCNC(=O)CCc2c[nH]c3ccccc23)CC1` [Example 5, N-(2-(4-(Dimethylamino)-4-(thiophen-2-yl)piperidin-1-yl)ethyl)-3-(1H-indol-3-yl)propanamide], the inhibition at 1 µM at human μ-opiate receptor came out at 98%; on ORL1 receptor, 89%.
As for `CC(C)C(CC(=O)NCCN1CCC(c2cccs2)(N(C)C)CC1)c1c[nH]c2ccccc12` (stereo not drawn) [Example 6, N-(2-(4-(Dimethylamino)-4-(thiophen-2-yl)piperidin-1-yl)ethyl)-3-(1H-indol-3-yl)-4-methylpentanamide], the “% Inhibition (μ) at 1 μM” value on human μ-opiate receptor (1 µM) is reported as 102%. Moreover, the “% Inhibition (ORL1) at 1 μM” value at ORL1 receptor amounted to 98%.
Consider `CN(C)C1(c2cccs2)CCN(CCNC(=O)C2CCCc3c2[nH]c2ccc(Cl)cc32)CC1` (stereo not drawn) [Example 7, 6-Chloro-N-(2-(4-(dimethylamino)-4-(thiophen-2-yl)piperidin-1-yl)ethyl)-2,3,4,9-tetrahydro-1H-carbazole-1-carboxamide], for which the inhibition at 1 µM amounted to 95% on human μ-opiate receptor and 62% at ORL1 receptor.
With `CN(C)C1(c2cccs2)CCN(CCNC(=O)Cc2c[nH]c3cc(F)ccc23)CC1` [Example 8, N-(2-(4-(Dimethylamino)-4-(thiophen-2-yl)piperidin-1-yl)ethyl)-2-(6-fluoro-1H-indol-3-yl)acetamide], the inhibition at 1 µM on human μ-opiate receptor is 99%; on ORL1 receptor, 96%.
Consider `CN(C)C1(c2cccs2)CCN(CCNC(=O)c2ccc3ccn(C)c3c2)CC1` [Example 9, N-(2-(4-(Dimethylamino)-4-(thiophen-2-yl)piperidin-1-yl)ethyl)-1-methyl-1H-indole-6-carboxamide], for which the figures for the inhibition at 1 µM on human μ-opiate receptor and at ORL1 receptor were 101% and 77%, respectively.
For `CN(C)C1(c2cccs2)CCN(CCNC(=O)c2cccc3c2ccn3C)CC1` [Example 10, N-(2-(4-(Dimethylamino)-4-(thiophen-2-yl)piperidin-1-yl)ethyl)-1-methyl-1H-indole-4-carboxamide], the results for the inhibition at 1 µM on human μ-opiate receptor and at ORL1 receptor were 99% and 56%, respectively.
With `CC(C)C(CC(=O)N(C)CCN1CCC(c2ccccc2)(N2CCCC2)CC1)c1c[nH]c2ccccc12` (stereo not drawn) [Example 32, 3-(1H-Indol-3-yl)-N,4-dimethyl-N-(2-(4-phenyl-4-(pyrrolidin-1-yl)piperidin-1-yl)ethyl)pentanamide], on human μ-opiate receptor, the inhibition at 1 µM turned out to be 61%.
Take `CCCCC1(N(C)C)CCN(CCN(C)C(=O)c2ccc3ccn(C)c3c2)CC1` [Example 38, N-(2-(4-Butyl-4-(dimethylamino)piperidin-1-yl)ethyl)-N,1-dimethyl-1H-indole-6-carboxamide]: the inhibition at 1 µM at human μ-opiate receptor stood at 68%.
Regarding `CN(CCN1CCC(c2ccccc2)(N2CCCC2)CC1)C(=O)c1cccc2c1ccn2C` [Example 40, N,1-Dimethyl-N-(2-(4-phenyl-4-(pyrrolidin-1-yl)piperidin-1-yl)ethyl)-1H-indole-4-carboxamide], the inhibition at 1 µM at human μ-opiate receptor was 40%.
In the case of `CN(CCN1CCC(c2ccccc2)(N2CCCC2)CC1)C(=O)c1c[nH]c2ccccc12` [Example 46, N-Methyl-N-(2-(4-phenyl-4-(pyrrolidin-1-yl)piperidin-1-yl)ethyl)-1H-indole-3-carboxamide], the inhibition at 1 µM on human μ-opiate receptor came out at 20%.
In the case of `CCCCC1(N(C)C)CCN(CCN(C)C(=O)c2c[nH]c3ccccc23)CC1` [Example 47, N-(2-(4-Butyl-4-(dimethylamino)piperidin-1-yl)ethyl)-N-methyl-1H-indole-3-carboxamide], the inhibition at 1 µM at human μ-opiate receptor amounted to 61%.
For `CN(CCN1CCC(c2ccccc2)(N2CCCC2)CC1)C(=O)CCc1cn(C)c2ccccc12` [Example 48, N-Methyl-3-(1-methyl-1H-indol-3-yl)-N-(2-(4-phenyl-4-(pyrrolidin-1-yl)piperidin-1-yl)ethyl)propanamide], on human μ-opiate receptor, the inhibition at 1 µM is 14%.
On to `CN(CCN1CCC(c2ccccc2)(N2CCCC2)CC1)C(=O)c1ccc2cc[nH]c2c1` [Example 54, N-Methyl-N-(2-(4-phenyl-4-(pyrrolidin-1-yl)piperidin-1-yl)ethyl)-1H-indole-6-carboxamide], for which the inhibition at 1 µM at human μ-opiate receptor came out at 15%.
The same measure, in the same setting: to `CCCCC1(N(C)C)CCN(CCN(C)C(=O)c2ccc3cc[nH]c3c2)CC1` [Example 55, N-(2-(4-Butyl-4-(dimethylamino)piperidin-1-yl)ethyl)-N-methyl-1H-indole-6-carboxamide] belongs 66%; to `CC(CC(=O)N(C)CCN1CCC(c2ccccc2)(N2CCCC2)CC1)c1c[nH]c2ccccc12` (stereo not drawn) [Example 57, 3-(1H-Indol-3-yl)-N-methyl-N-(2-(4-phenyl-4-(pyrrolidin-1-yl)piperidin-1-yl)ethyl)butanamide], 45%.
On to `COc1ccc2[nH]c(C(=O)N(C)CCN3CCC(c4ccccc4)(N4CCCC4)CC3)cc2c1` [Example 64, 5-Methoxy-N-methyl-N-(2-(4-phenyl-4-(pyrrolidin-1-yl)piperidin-1-yl)ethyl)-1H-indole-2-carboxamide], for which, on human μ-opiate receptor, the inhibition at 1 µM worked out at 18%.
Consider `CCCCC1(N(C)C)CCN(CCN(C)C(=O)c2cc3cc(OC)ccc3[nH]2)CC1` [Example 65, N-(2-(4-Butyl-4-(dimethylamino)piperidin-1-yl)ethyl)-5-methoxy-N-methyl-1H-indole-2-carboxamide], for which the inhibition at 1 µM at human μ-opiate receptor is 42%.
With `CN(CCN1CCC(c2ccccc2)(N2CCCC2)CC1)Cc1c[nH]c2ccccc12` [Example 137, N-((1H-indol-3-yl)methyl)-N-methyl-2-(4-phenyl-4-(pyrrolidin-1-yl)piperidin-1-yl)ethanamine], on human μ-opiate receptor, the inhibition at 1 µM was 82%.
For `CCCCC1(N(C)C)CCN(CCN(C)Cc2ccc3[nH]ccc3c2)CC1` [Example 141, 1-(2-(((1H-indol-5-yl)methyl)(methyl)amino)ethyl)-4-butyl-N,N-dimethylpiperidin-4-amine], on human μ-opiate receptor, the inhibition at 1 µM is 82%.
On to `CN(CCN1CCC(c2ccccc2)(N2CCCC2)CC1)Cc1c[nH]c2ccc(Br)cc12` [Example 153, N-((5-bromo-1H-indol-3-yl)methyl)-N-methyl-2-(4-phenyl-4-(pyrrolidin-1-yl)piperidin-1-yl)ethanamine], for which the inhibition at 1 µM on human μ-opiate receptor came to 93%.
On the same count and under the same terms, to `CN(CCN1CCC(c2ccccc2)(N2CCCC2)CC1)Cc1cccc2[nH]ccc12` [Example 159, N-((1H-indol-4-yl)methyl)-N-methyl-2-(4-phenyl-4-(pyrrolidin-1-yl)piperidin-1-yl)ethanamine] belongs 64%.
Take `CCCCC1(N(C)C)CCN(CCN(C)Cc2cccc3[nH]ccc23)CC1` [Example 160, 1-(2-(((1H-indol-4-yl)methyl)(methy)amino)ethyl)-4-butyl-N,N-dimethylpiperidin-4-amine]: the “% Inhibition (μ) at 1 μM” value at human μ-opiate receptor came to 87%.

(Values after patent US9206156B2, “Substituted indole derivatives” (GRÜNENTHAL GMBH, priority 2008, dated 2015).)
